Results: patent US20230086703A1, “N-(4-(5-chloropyridin-3-yl)phenyl)-2-(2-(cyclopropanesulfonamido)pyrimidin-4-yl) butanamide derivatives and related compounds as human CTPS1 inhibitors for the treatment of proliferative diseases” (Step Pharma S.A.S., priority 2019, published 2023)
pIC50: −log10 of the molar value.

Molecular target: T1, human CTPS1 (Homo sapiens, UniProt P17812)
T1 construct: FLAG (with GG linker); His8 (with GG linker); purchased Proteros biostructures GmbH
T1 sequence (P17812 1-591): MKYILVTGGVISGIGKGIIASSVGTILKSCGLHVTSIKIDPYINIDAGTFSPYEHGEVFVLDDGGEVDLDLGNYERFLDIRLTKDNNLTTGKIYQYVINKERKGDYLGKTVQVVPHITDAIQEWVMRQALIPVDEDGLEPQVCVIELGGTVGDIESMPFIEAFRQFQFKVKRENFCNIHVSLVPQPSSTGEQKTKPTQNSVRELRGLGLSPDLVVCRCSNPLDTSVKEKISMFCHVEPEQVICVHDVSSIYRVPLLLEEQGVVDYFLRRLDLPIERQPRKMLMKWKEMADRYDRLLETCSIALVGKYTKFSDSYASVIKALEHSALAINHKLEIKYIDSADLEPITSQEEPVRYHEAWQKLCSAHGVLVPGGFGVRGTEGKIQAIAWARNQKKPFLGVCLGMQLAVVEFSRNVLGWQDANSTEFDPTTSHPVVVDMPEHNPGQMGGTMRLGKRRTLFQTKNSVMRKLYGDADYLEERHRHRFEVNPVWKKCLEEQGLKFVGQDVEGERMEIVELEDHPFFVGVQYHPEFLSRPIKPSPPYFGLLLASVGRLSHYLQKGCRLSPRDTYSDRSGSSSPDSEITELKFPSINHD
Experiment: Human CTPS1 enzyme inhibition, ADP-Glo Max assay
Format: biochemical
Conditions: ADP-Glo Max assay; Table 10; read-out: Human CTPS1 Enzyme Inhibition, IC50 grouped by potency range (CTPS1)
Procedure: The enzyme inhibitory activities of compounds invented against the target of interest were determined using the ADP-Glo™ Max assay (Promega, UK). Assays for human CTPS1 were performed in 1× assay buffer containing 50 mM Tris, 10 mM MgCl2, 0.01% Tween-20, pH to 8.0 accordingly. Finally, immediately before use, L-cysteine was added to the 1× assay buffer to a final concentration of 2 mM. All reagents are from Sigma-Aldrich unless specified otherwise.
3× human CTPS1 protein was prepared in 1× assay buffer to the final working protein concentration required for the reaction. A 2 uL volume per well of 3× human CTPS1 protein was mixed with 2 uL per well of 3× test compound (compound prepared in 1× assay buffer to an appropriate final 3× compound concentration respective to the concentration response curve designed for the compounds under test) for 10 minutes at 25° C. […] ADP-Glo™ Max reagent was added for 60 minutes (6 μL per well) and subsequently ADP-Glo™ Max development reagent was added for 60 minutes (12 uL per well) prior to signal detection in a microplate reader (EnVision® Multilabel Reader, Perkin Elmer). Following each reagent addition over the course of the assay, assay plates were pulse centrifuged for 30 seconds at 500 rpm.
In all cases, the enzyme converts ATP to ADP and the ADP-Glo™ Max reagent subsequently depletes any remaining endogenous ATP in the reaction system. The ADP-Glo™ Max detection reagent converts the ADP that has been enzymatically produced back into ATP and using ATP as a substrate together with luciferin for the enzyme luciferase, light is generated which produces a detectable luminescence. […] The percentage inhibition produced by each concentration of compound was calculated using the equation shown below: […]

Q: With `COc1ccc(-c2ccc(NC(=O)C(C)(C)c3csc(NS(=O)(=O)C4CC4)n3)cc2)cn1` [T46, 2-(2-(cyclopropanesulfonamido)thiazol-4-yl)-N-(4-(6-methoxypyridin-3-yl)phenyl)-2-methylpropanamide] as the compound, how does the pIC50 read?
A: 5.00 to 6.00

Q: With `CC(C)(C(=O)Nc1ccc(-c2cncc(C#N)c2)cc1)c1csc(NS(=O)(=O)C2CC2)n1` [T47, N-(4-(5-cyanopyridin-3-yl)phenyl)-2-(2-(cyclopropanesulfonamido)thiazol-4-yl)-2-methylpropanamide] as the compound, how does the pIC50 read?
A: > 7.00

Q: How did the pIC50 turn out when `CC(C)(C(=O)Nc1ccc(-c2cncc(C(F)(F)F)c2)cc1)c1csc(NS(=O)(=O)C2CC2)n1` [T48, 2-(2-(cyclopropanesulfonamido)thiazol-4-yl)-2-methyl-N-(4-(5-(trifluoromethyl)pyridin-3-yl)phenyl)propanamide] was run?
A: > 7.00

Q: How did the pIC50 turn out when `CC(C)(C(=O)Nc1ccc(-c2cncc(S(C)(=O)=O)c2)cc1)c1csc(NS(=O)(=O)C2CC2)n1` [T49, 2-(2-(cyclopropanesulfonamido)thiazol-4-yl)-2-methyl-N-(4-(5-(methylsulfonyl)pyridin-3-yl)phenyl)propanamide] was run?
A: 6.00 to 7.00

Q: With `COc1cncc(-c2ccc(NC(=O)C(C)(C)c3csc(NS(=O)(=O)C4CC4)n3)c(OC)c2)c1` [T50, 2-(2-(cyclopropanesulfonamido)thiazol-4-yl)-N-(2-methoxy-4-(5-methoxypyridin-3-yl)phenyl)-2-methylpropanamide] as the compound, how does the pIC50 read?
A: > 7.00

Q: How did the pIC50 turn out when `CC(C)(C(=O)Nc1ccc(-c2cccc(C(F)(F)F)n2)cn1)c1csc(NS(=O)(=O)C2CC2)n1` [T51, 2-(2-(cyclopropanesulfonamido)thiazol-4-yl)-2-methyl-N-(6-(trifluoromethyl)-[2,3′-bipyridin]-6′-yl)propanamide] was run?
A: > 7.00

Q: `CCOc1cncc(-c2ccc(NC(=O)C(C)(C)c3csc(NS(=O)(=O)C4CC4)n3)cc2)n1` [T52, 2-(2-(cyclopropanesulfonamido)thiazol-4-yl)-N-(4-(6-ethoxypyrazin-2-yl)phenyl)-2-methylpropanamide] was tested. Which pIC50 did it give?
A: > 7.00

Q: How did the pIC50 turn out when `CC(C)(C(=O)Nc1ccc(-c2cncc(N3CCOCC3)n2)cc1)c1csc(NS(=O)(=O)C2CC2)n1` [T53, 2-(2-(cyclopropanesulfonamido)thiazol-4-yl)-2-methyl-N-(4-(6-morpholinopyrazin-2-yl)phenyl)propanamide] was run?
A: 5.00 to 6.00

Q: How did the pIC50 turn out when `CC(C)(C(=O)Nc1ccc(-c2cncc(OC3CCC3)n2)cc1)c1csc(NS(=O)(=O)C2CC2)n1` [T54, N-(4-(6-cyclobutoxypyrazin-2-yl)phenyl)-2-(2-(cyclopropanesulfonamido)thiazol-4-yl)-2-methylpropanamide] was run?
A: 6.00 to 7.00

Q: With `CCCOc1cncc(-c2ccc(NC(=O)C(C)(C)c3csc(NS(=O)(=O)C4CC4)n3)cc2)n1` [T55, 2-(2-(cyclopropanesulfonamido)thiazol-4-yl)-2-methyl-N-(4-(6-propoxypyrazin-2-yl)phenyl)propanamide] as the compound, how does the pIC50 read?
A: > 7.00

Q: With `COc1cncc(-c2ccc(NC(=O)C(C)(C)c3csc(NS(=O)(=O)C4CC4)n3)c(F)c2)c1` [T56, 2-(2-(cyclopropanesulfonamido)thiazol-4-yl)-N-(2-fluoro-4-(5-methoxypyridin-3-yl)phenyl)-2-methylpropanamide] as the compound, how does the pIC50 read?
A: > 7.00

Q: With `O=C(Nc1ccc(-c2ccccc2)cc1)C(F)(F)c1csc(NS(=O)(=O)C2CC2)n1` [T60, N-([1,1′-biphenyl]-4-yl)-2-(2-(cyclopropanesulfonamido)thiazol-4-yl)-2,2-difluoroacetamide] as the compound, how does the pIC50 read?
A: 6.00 to 7.00

Q: How did the pIC50 turn out when `COc1cncc(-c2ccc(NC(=O)Cc3csc(NS(=O)(=O)C4CCC4)n3)cc2)n1` [T61, 2-(2-(cyclobutanesulfonamido)thiazol-4-yl)-N-(4-(6-methoxypyrazin-2-yl)phenyl)acetamide] was run?
A: > 7.00

Q: How did the pIC50 turn out when `CCC(C(=O)Nc1ccc(-c2cccnc2)cn1)c1csc(NS(=O)(=O)C2CC2)n1` (stereo not shown) [T62, N-([3,3′-bipyridin]-6-yl)-2-(2-(cyclopropanesulfonamido)thiazol-4-yl)butanamide] was run?
A: 6.00 to 7.00

Q: `CC(C)(C(=O)Nc1ccc(-c2ccccc2)cn1)c1csc(NS(=O)(=O)C2CC2)n1` [T63, 2-(2-(cyclopropanesulfonamido)thiazol-4-yl)-2-methyl-N-(5-phenylpyridin-2-yl)propanamide] was tested. Which pIC50 did it give?
A: 6.00 to 7.00

Q: With `O=C(Cc1csc(NS(=O)(=O)C2CC2)n1)Nc1ccc(-c2cncnc2)cn1` [T64, 2-(2-(cyclopropanesulfonamido)thiazol-4-yl)-N-(5-(pyrimidin-5-yl)pyridin-2-yl)acetamide] as the compound, how does the pIC50 read?
A: 6.00 to 7.00

Q: With `O=C(Cc1csc(NS(=O)(=O)C2CC2)n1)Nc1ccc(-c2cccnc2)cn1` [T65, N-([3,3′-bipyridin]-6-yl)-2-(2-(cyclopropanesulfonamido)thiazol-4-yl)acetamide] as the compound, how does the pIC50 read?
A: 6.00 to 7.00

Q: How did the pIC50 turn out when `O=C(Cc1csc(NS(=O)(=O)C2CC2)n1)Nc1ccc(-c2ccccc2)nc1` [T66, 2-(2-(cyclopropanesulfonamido)thiazol-4-yl)-N-(6-phenylpyridin-3-yl)acetamide] was run?
A: 6.00 to 7.00

Q: How did the pIC50 turn out when `O=C(Cc1csc(NS(=O)(=O)C2CC2)n1)Nc1ccc(-c2cccnc2)nc1` [T67, N-([2,3′-bipyridin]-5-yl)-2-(2-(cyclopropanesulfonamido)thiazol-4-yl)acetamide] was run?
A: 6.00 to 7.00

Q: `CC(C)(C(=O)Nc1ccc(-c2cccnn2)cc1)c1csc(NS(=O)(=O)C2CC2)n1` [T68, 2-(2-(cyclopropanesulfonamido)thiazol-4-yl)-2-methyl-N-(4-(pyridazin-3-yl)phenyl)propanamide] was tested. Which pIC50 did it give?
A: 6.00 to 7.00

Q: How did the pIC50 turn out when `COc1cncc(-c2ccc(NC(=O)Cc3csc(NS(=O)(=O)C4CC4)n3)cc2)n1` [T81, 2-(2-(cyclopropanesulfonamido)thiazol-4-yl)-N-(4-(6-methoxypyrazin-2-yl)phenyl)acetamide] was run?
A: > 7.00

Q: With `O=C(Cc1csc(NS(=O)(=O)C2CC2)n1)Nc1ccc(-c2cnccn2)cc1` [T82, 2-(2-(cyclopropanesulfonamido)thiazol-4-yl)-N-(4-(pyrazin-2-yl)phenyl)acetamide] as the compound, how does the pIC50 read?
A: > 7.00

Q: How did the pIC50 turn out when `CCC(CC)(C(=O)Nc1ccc(-c2cccnc2)cc1)c1csc(NS(=O)(=O)C2CC2)n1` [T92, 2-(2-(cyclopropanesulfonamido)thiazol-4-yl)-2-ethyl-N-(4-(pyridin-3-yl)phenyl)butanamide] was run?
A: > 7.00

Q: How did the pIC50 turn out when `CCC(CC)(C(=O)Nc1ccc(-c2cncc(C#N)c2)cc1)c1csc(NS(=O)(=O)C2CC2)n1` [T93, N-(4-(5-cyanopyridin-3-yl)phenyl)-2-(2-(cyclopropanesulfonamido)thiazol-4-yl)-2-ethylbutanamide] was run?
A: > 7.00

Q: How did the pIC50 turn out when `CC(C)(C(=O)Nc1ccc(-c2ccccc2)cc1)c1csc(NS(=O)(=O)C2CC2)n1` [T97, N-([1,1′-biphenyl]-4-yl)-2-(2-(cyclopropanesulfonamido)thiazol-4-yl)-2-methylpropanamide] was run?
A: 6.00 to 7.00

Q: How did the pIC50 turn out when `Cc1ccncc1-c1ccc(NC(=O)Cc2csc(NS(=O)(=O)C3CC3)n2)cc1` [T98, 2-(2-(cyclopropanesulfonamido)thiazol-4-yl)-N-(4-(4-methylpyridin-3-yl)phenyl)acetamide] was run?
A: 6.00 to 7.00

Q: How did the pIC50 turn out when `Cc1cncc(-c2ccc(NC(=O)Cc3csc(NS(=O)(=O)C4CC4)n3)cc2)c1` [T99, 2-(2-(cyclopropanesulfonamido)thiazol-4-yl)-N-(4-(5-methylpyridin-3-yl)phenyl)acetamide] was run?
A: > 7.00

Q: With `Cc1ccc(-c2ccc(NC(=O)Cc3csc(NS(=O)(=O)C4CC4)n3)cc2)cn1` [T101, 2-(2-(cyclopropanesulfonamido)thiazol-4-yl)-N-(4-(6-methylpyridin-3-yl)phenyl)acetamide] as the compound, how does the pIC50 read?
A: 5.00 to 6.00

Q: How did the pIC50 turn out when `Cc1ncccc1-c1ccc(NC(=O)C(C)(C)c2csc(NS(=O)(=O)C3CC3)n2)cc1` [T103, 2-(2-(cyclopropanesulfonamido)thiazol-4-yl)-2-methyl-N-(4-(2-methylpyridin-3-yl)phenyl)propanamide] was run?
A: 6.00 to 7.00

Q: How did the pIC50 turn out when `O=C(Nc1ccc(-c2cccnc2)cc1)C(=O)c1csc(NS(=O)(=O)C2CC2)n1` [T104, 2-(2-(cyclopropanesulfonamido)thiazol-4-yl)-2-oxo-N-(4-(pyridin-3-yl)phenyl)acetamide] was run?
A: 6.00 to 7.00

Q: How did the pIC50 turn out when `Cc1ccc(-c2ccc(NC(=O)C(C)(C)c3csc(NS(=O)(=O)C4CC4)n3)cc2)cn1` [T105, 2-(2-(cyclopropanesulfonamido)thiazol-4-yl)-2-methyl-N-(4-(6-methylpyridin-3-yl)phenyl)propanamide] was run?
A: 5.00 to 6.00
